How the values were obtained:
[1] = tested on: HSV-1, strain E-377; test: Orofacial HSV-1 infection in SKH-1 mice: mortality and facial lesion scores; format: in vivo; conditions: for Mortality Number: dead/total, topical 3 times daily Days 4-6, 20 min intervals, acyclovir 3 times daily for 5 days from 24 h after inoculation; for #With Lesions/#Inoculated: facial lesions, days 1-21; for Mean Peak Lesion Score ± SD: lesion score scale 0.0-5.0
Protocol: In this model, mice are anesthetized with a ketamine/xylazine mixture and implanted with an electronic microchip for individual identification. […] This procedure is performed carefully to prevent bleeding. […] Following this procedure, animals are returned to their cages and observed until recovery.
(§1) To determine the effect of treatment on cutaneous viral replication, severity of lesions is scored from days 1-21 and swabs of the snout area are taken on days 2-8 and 10. […] All drug studies are placebo or vehicle controlled.
(§2) During the post-challenge phase, animals were examined daily and lesions scored for severity and samples taken for quantitation of orofacial HSV replication.
Female SKH-1 mice (Charles River Laboratories, Raleigh, N.C.) were assigned randomly to groups. Each efficacy group contained 10 animals. Animals were anesthetized with ketamine-xylazine, implanted with an identification microchip, and has the orofacial area abraded using a Dremmel tool with an engraving bit.
To determine the effect of treatment on the development and severity of lesions, severity of lesions were graded on a 0.0 to 5.0 scale in 0.5 increments, according to the scale below. The presence or absence of lesions and severity of lesions was recorded daily beginning day 1 through day 21 post-challenge. Animals were observed daily for signs of systemic viral disease.
(§3) Mortality rates were analyzed by Fisher's exact test and mean day of death using Mann-Whitney U rank sum test. Infection rates, peak lesion scores, peak virus titers, areas under the curve for virus titer-day and lesion score-day between control and treated animals will be compared using the Mann-Whitney U Rank Sum Test.

[2] = tested on: HSV-1, strain E-377; test: Orofacial HSV-1 infection in SKH-1 mice: virus titers of orofacial swabs (CPE microtiter assay on rabbit kidney cells); format: in vivo; conditions: for mean virus titer ± standard deviation, Day 4 am: Day 4, am (before treatments); for mean virus titer ± standard deviation, Day 4 pm: Day 4, pm (after treatments); for mean virus titer ± standard deviation, Day 5 am: Day 5, am (before treatments); for mean virus titer ± standard deviation, Day 5 pm: Day 5, pm (after treatments); for mean virus titer ± standard deviation, Day 6 am: Day 6, am (before treatments); for mean virus titer ± standard deviation, Day 6 pm: Day 6, pm (after treatments); for Mean Peak Titer Score ± SD: orofacial swabs; for #Virus Positive/#Inoculated / Titer-Day AUC: orofacial swabs days 2-8 and 10
Text: as §1, §2
To determine the effect of treatment on HSV-1 replication on the orofacial area, swabs of the area were obtained on days 2 through 8 and 10 post-viral challenge. On treatment days, swabs were obtained at least 3 hours following the final treatment. Swabs were placed in tubes containing 2.0 ml of media, vortexed, and frozen at −70° C. until titrated for HSV. […] Wells were seeded with 10^4 cells per well and inoculated in triplicate 24 h later. The plates were read under a microscope five days after viral inoculation and the presence/absence of viral CPE in each well noted. A TCID50 value was calculated using Reed-Muench Methodology.
To determine the effect of treatment on HSV-1 replication from the lesions on the orofacial area, swabs of the area were obtained at least 3 hours after treatment on days when mice are treated. […] Samples were taken before treatments and after treatments.
as §3, with “Test. A P-value of 0.05 or less will be considered significant.” for “Test.”
In addition, the immediate post treatment effects on lesion derived virus titers was analyzed using the mixed linear model with a P-value of 0.05 or less considered as significant. This difference in virus recovered from animals before and after treatments for all treatment days was used to calculate significance.

[3] = same regimens as Mortality Number

Row | Compound | Mortality Number [1] | #With Lesions/#Inoculated [1] | Mean Peak Lesion Score ± SD [1] | Mortality Percent [1, 3] [%] | mean virus titer ± standard deviation, Day 4 am [2] | mean virus titer ± standard deviation, Day 4 pm [2] [TCID50] | mean virus titer ± standard deviation, Day 5 am [2] [TCID50] | mean virus titer ± standard deviation, Day 5 pm [2] [TCID50] | mean virus titer ± standard deviation, Day 6 am [2] [TCID50] | mean virus titer ± standard deviation, Day 6 pm [2] [TCID50] | Mean Peak Titer Score ± SD [2] | #Virus Positive/#Inoculated [2] | Lesion-Day AUC ([1]; lesion score scale 0.0-5.0, days 1-21) | MDD (Mean Day of Death) [1, 3] | Titer-Day AUC [2]
1 | Nc1nc2c(ncn2COCCO)c(=O)[nH]1 [5% Acyclovir, Acyclovir, reference compound] | 0/10 | 0/10 | 0.0 ± 0.0 | 0 | 0.2 ± 0.8^ TCID50 | 0.0 ± 0.0 | 0.0 ± 0.0 | 0.0 ± 0.0 | 0.0 ± 0.0 | 0.0 ± 0.0 | 0.6 ± 0.1 | 3/10 | – | – | –
2 | Ethyl alcohol [Compound 1] | 8/10 | 10/10 | 3.0 ± 0.0↑ | 80 | 5.1 ± 1.0^ TCID50 | 5.1 ± 1.5 | 5.7 ± 0.4 | 5.6 ± 0.6 | 4.9 ± 0.7 | 4.0 ± 0.8 | 6.0 ± 0.2 | 10/10 | 41.1↑ | 7.9 | 32.2
3 | Glycolic acid [Compound 2] | – | – | – | – | 4.2 ± 1.3^ TCID50 | 4.2 ± 1.6 | 5.5 ± 0.4 | 5.1 ± 0.6 | 5.2 ± 0.6 | 4.4 ± 0.5 | 5.3 ± 0.5 | 10/10 | – | – | 33.3

Source: patent publication US20180243309A1, “TOPICAL ANTIVIRAL COMPOSITIONS” (Topical Remedy, LLC, priority 2015, published 2018)
